Measurements: patent US20040002842A1, “Methods and systems for analyzing complex biological systems” (priority 2001, published 2004)

Assays:
[1] = tested on: Arabidopsis thaliana plants; assay: SOA1 phenotypic analysis of herbicide-treated plants (incl. MIC/Tmic); type: in vivo; conditions: herbicide-treated plants
[2] = tested on: Arabidopsis thaliana plants; assay: SOA1 gene expression analysis (60mer microarray, 6200 genes) of herbicide-treated tissue; conditions: SOA1 profiles
[3] = tested on: Saccharomyces cerevisiae wild type strain BY4743; assay: AF1 yeast gene expression analysis (microarray, KEGG pathway mapping); type: cell-based
Description: Saccharomyces cerevisiae wild type strain BY4743 was purchased from American Type Culture Center (ATCC, Manassas, Va.). The yeast strain was grown in YPD or SD media. H. […] The cultures started from fresh single colonies were grown in 1.0 ml YPD overnight at 30° C. […] The OD600 was adjusted to 1.0 with YPD media, then 2.0 ml of each was inoculated into three 250 ml flasks, each containing 50 ml of SD media. […] The cells were kept growing for another two hours, then collected by centrifugation at 4000 rpm for 5 minutes at 4° C. Pellets were washed once with ice-cold water, then were lyophilized overnight at 4° C. […] Tubes were vortexed for 30 seconds, then incubated for 10 minutes at room temperature (RT). […] Tubes were incubated for 10 minutes at RT. Samples were centrifuged for 20 minutes as before. Pellets were washed with 400 μl 70% ethanol and centrifuged for 10 minutes as before. The pellet was then dissolved in 100 μl nuclease-free water. RNA quality was determined using the Bioanalyzer 2100 and the RNA 6000 assay (Agilent Technologies, Palo Alto, Calif.) according to manufacturer's instructions. RNA concentrations were determined spectrophotometrically by measuring the absorption at 260 nm in an Ultrospec 2000 (Pharmacia Biotech, Piscataway, N.J.). […] Labeled cRNAs were evaluated using the RNA 6000 assay on the Agilent Bioanalyzer 2100. Labeled cRNA concentrations were determined spectrophotometrically by measuring the absorption at 260 nm in an Ultrospec 2000 (Pharmacia Biotech, Piscataway, N.J.). […] Each pair of samples to be hybridized were independently labeled and hybridized utilizing a fluor reversal for a total of two hybridizations per sample pair. The microarrays were scanned simultaneously in the Cy3 and Cy5 channels with Agilent's 48-slide, Dual Laser DNA Microarray Scanner (Agilent Technologies, Palo Alto, Calif.) at 10 μm resolution using default settings. Image Analysis Software (Version A.4.0.45, Agilent Technologies, Palo Alto, Calif.) was used for image analysis. Each feature was determined from an array's associated pattern file and a detection algorithm. Intensity values for each feature were determined after subtracting background derived from an average of negative control features. Features with unusual pixel intensity statistics (e.g., high non-uniformity, saturation in either channel, and the like) were excluded from downstream analyses. Data was loaded into the Rosetta RESOLVER database (Rosetta Inpharmatics Inc., Kirkland, Wash.) for storage and analysis. Data was evaluated after combining results from fluor reversal replicate hybridizations. The annotation of yeast ORFs was obtained from Proteome BIOKNOWLEDGE Library (Incyte Genomics, Palo Alto, Calif.). In AF1, two different technologies were utilized: gene expression analysis (for examination of mRNA expression) and metabolite analysis. […] As noted previously, existing metabolic databases may be helpful in practicing the methods and systems of the present invention, but many databases include limitations that make their use in data analysis and pathway mapping less than straightforward. […] This caveat to KEGG makes it difficult to pinpoint the correct pathway when attempting to link a gene to a specific pathway. The pathway score indicates how meaningful the mapping is, or how likely it is to be correctly indicative of the pathway involved in the perturbation under examination. The method provides a pathway score based on perturbation levels of genes and/or compounds and the information content of each gene and/or compound in the pathway, i.e., a pathway score indicates the extent to which other pathways are mapped to a gene/compound. For example, imagine that two genes are perturbed in a particular experiment.

[4] = tested on: Saccharomyces cerevisiae wild type strain BY4743; assay: AF1 yeast metabolite analysis by GC-MS and LC-MS; type: cell-based; conditions: for # Compounds perturbed by treatment: 2×MIC, two hours
[5] = tested on: Saccharomyces cerevisiae wild type strain BY4743; assay: AF1 combined gene expression and metabolite data (reactions, pathways, cluster analysis); type: cell-based
From the text: The data were then combined to determine the number of reactions showing an enzyme and at least one compound perturbed, and to determine the number of pathways having at least one enzyme and one perturbed compound perturbed. The results of the analysis are represented in Tables 16 and 17, and were difficult to interpret, illustrating that the ability to draw conclusions from compound mapping to pathways is limited when absent additional data. […] A coherent data set was created from data obtained from the four above-described drug compounds. The data were reduced by using principle components analysis and cluster analysis.

## COC(=O)c1cc(Oc2ccc(Cl)cc2Cl)ccc1[N+](=O)[O-] [Bifenox]
[1]
  characteristic symptoms (morphological phenotype): Necrotic leaf flecks
[2]
  gene expression profile correlation to acifluorfen (r): 0.151

## CCc1cccc(C)c1N(C(=O)CCl)C(C)COC (stereo not drawn) [Metolachlor]
[2]
  gene expression profile correlation with bifenox (r): 0.499
  gene expression profile correlation with diquat (r): 0.569

## CC[C@@H]([C@H](C)O)n1ncn(-c2ccc(N3CCN(c4ccc(OC[C@@H]5CO[C@@](Cn6cncn6)(c6ccc(F)cc6F)C5)cc4)CC3)cc2)c1=O [Posaconazole]
[3]; P < 0.05, 2×MIC, two hours
  # Transcripts perturbed by treatment: 690
[3]; p < 0.05, KEGG mapping
  Number of Pathways Affected by at Least One Gene, # Pathways: 69
[4]; P < 0.05
  # Compounds perturbed by treatment: 3
[4]; P < 0.1
  # Compounds perturbed by treatment: 4
[4]; Platform GC
  Fold Change: alanine: 1.035
  Fold Change: asparagine: 0.145
  Fold Change: aspartic acid: −0.071
  Fold Change: campesterol: 0
  Fold Change: desmosterol: 0
  Fold Change: disaccaride1: 0.04733
  Fold Change: disaccaride2: 0.313
  Fold Change: disaccaride3: 0.3407
  Fold Change: ergosterol: 0.808
  Fold Change: fucosterol: 6.722
  Fold Change: glutamine: 0.6439
  Fold Change: glycanopyrose: 1.594
  Fold Change: glycerol: 0.1873
  Fold Change: glycine: 0.08267
  Fold Change: hexadecanoic acid: −0.01867
  Fold Change: iso citric acid: 0.4
  Fold Change: isoleucine: 0.1023
  Fold Change: lanosterol: 7.464
  Fold Change: leucine: 0.334
  Fold Change: lysine: 0.1586
  Fold Change: malic acid: 0.2942
[4]; Platform nLC
  Fold Change: 2-ketobutyric acid: −0.9992
  Fold Change: 2-ketoglutaric: 11.33
  Fold Change: 3-indolylacetonitri: −0.9998
  Fold Change: 4-methylcatechol: 0
  Fold Change: 4aminobutyrate/dimg: −0.008939
  Fold Change: 5hydroxyLtryptophan: 0
  Fold Change: 6-benzylaminopurine: 0
  Fold Change: DLaminoadipic acid: −0.9935
  Fold Change: abscisic acid: 0
  Fold Change: aconitic acid: 1.874
  Fold Change: adenine: 0
  Fold Change: adenosine: 128.3
  Fold Change: alanine: 0.1091
  Fold Change: allantoic acid: 0.3321
  Fold Change: allantoin: 5.97
  Fold Change: anthranilic acid: 0
  Fold Change: arginine: 0.1707
  Fold Change: argininosuccinate: 318.3
  Fold Change: asparagine: 0.006865
  Fold Change: aspartic: 0.305
  Fold Change: benzoic acid: 0
  Fold Change: biotin: −0.9992
  Fold Change: caffeic acid: −0.49
  Fold Change: catechol: 0
  Fold Change: cinnamic acid: 0
  Fold Change: citricanoic/itaconi: 0
  Fold Change: citrulline: 1160
  Fold Change: coumaric acid: 0
  Fold Change: cytidine: −0.9986
  Fold Change: cytosine: 0
  Fold Change: decanoic acid: 0.1263
  Fold Change: diaminopimelic acid: 0
  Fold Change: dihydrofolic acid: 0
  Fold Change: estrone: 0
  Fold Change: farnesol: 0
  Fold Change: folic acid: 0
  Fold Change: fumaric/3m2oxobutan: −0.9997
  Fold Change: gallic acid: 0.4414
  Fold Change: gibberellic: 0
  Fold Change: glucosamine6PO4: −0.9951
  Fold Change: glutamic/acetylseri: 0.3222
  Fold Change: glutamine/lysine: 0.09814
  Fold Change: guanine: 0
  Fold Change: guanosine: −0.993
  Fold Change: histidine: 0
  Fold Change: homogentisic/uric: 0
  Fold Change: hydrocortisone: 0
  Fold Change: hypoxanthine: 0.1751
  Fold Change: indole3pyruvic acid: 0
  Fold Change: inostol/glucos/sorb: −0.493
  Fold Change: isocitric/citric/qu: 1.711
  Fold Change: jasmonic acid: 0
  Fold Change: kinetin: 0
  Fold Change: lactic acid: 0.5987
  Fold Change: lauric acid: 0.9833
  Fold Change: leucine/isoleucine/: 0.03158
  Fold Change: luteolin: 0
  Fold Change: malic acid: 0.3101
  Fold Change: malonic acid: 0
  Fold Change: menthol*: 0.08121
  Fold Change: methionine: 0
[4]; Platform pLC
  Fold Change: 4-aminobenzoic acid: 0
  Fold Change: 4-methylcatechol: 0
  Fold Change: 4ambutyrate/dimglyc: 31.37
  Fold Change: 5hydroxyLtryptophan: 0
  Fold Change: 6benzylaminopurine: 0
  Fold Change: DL-aminoadipic acid: 1.685
  Fold Change: abscisic acid: 0
  Fold Change: adenine: −0.0145
  Fold Change: adenosine: 0
  Fold Change: alanine/sarcosine: 0.1013
  Fold Change: allantoic acid: 0
  Fold Change: anthranilic acid: 0
  Fold Change: arginine: 0.03383
  Fold Change: argininosuccinate: 0
  Fold Change: asparagine: 0.4302
  Fold Change: aspartic acid: 0.3626
  Fold Change: biotin: 0
  Fold Change: caffeine: 0
  Fold Change: citric acid TME: 0
  Fold Change: citrulline: 0.1011
  Fold Change: cytidine: 0
  Fold Change: cytosine: 1135
  Fold Change: diaminopimelic acid: 0
  Fold Change: dihydrofolic acid: 0
  Fold Change: dipicolinic acid: 0
  Fold Change: folic acid: 0
  Fold Change: glucosamine: 0
  Fold Change: glucosamine6PO4: 0
  Fold Change: glutamate: 0.3769
  Fold Change: glutamine/lysine: 0.303
  Fold Change: glutathione: 0.0101
  Fold Change: guanosine: 0.04655
  Fold Change: histidine: 0
  Fold Change: hydrocortisone: 0
  Fold Change: hypoxanthine: 0.135
  Fold Change: itaconic acid dimes: 0
  Fold Change: kinetin: 0
  Fold Change: leucine/isoleucine/: 0.04937
  Fold Change: luteolin: 0
  Fold Change: mannitol: 0.3919
  Fold Change: methionine: −0.3997
[5]
  Number of Reactions Having an Enzyme and at Least One Compound Perturbed, # Reactions: 0
